Legend:
[1] = system: neointimal formation; details: controlled local delivery, rat carotid balloon injury model; cited from earlier work
[2] = system: porcine SMC; test: Inhibition of SMC proliferation and recovery (cell count); assay type: cell-based; details: 10 μM; for mean reduction in SMC count by day 3: compared to DMSO treated control cells; for reversibility of the inhibitory effect on SMC proliferation: cultures washed on day 7, recovery counted day 13
Method: Smooth muscle cells (SMC) were obtained under aseptic conditions from porcine abdominal aortas. Each artery was cut open and the endothelial surface mechanically scraped. The vessels were then cut into 2 mm^2 fragments which were placed in culture dishes with Dulbecco's modified Eagle's medium (DMEM) supplemented with 15% (v/v) fetal calf serum (FCS), 100 u/ml penicillin, 100 μg/ml streptomycin, and […]. The tissue fragments were then placed in an incubator at 37° C. under 9% CO2 atmosphere until SMC outgrowth was detected (typically within 3-7 days). […] For experiments testing the effect of tyrphostins on growth inhibition and recovery (see below), SMC from passages 1-3 were replated in 15 mm wells pretreated with 3 μg/cm^2 fibronectin (Biological Industries, Kibbutz Beit Haemek, Israel) at 15,000 cells/well.
Inhibition of cell proliferation and recovery: Monolayer cell growth inhibition and recovery experiments were repeated 3 or 4 times. Each experiment was performed in triplicate. Approximately 15,000 cells (SMC or PAEC) in 1 ml of culture medium supplemented with either 15% FCS (SMC) or 10% FCS (PAEC) were seeded on day 0 in 15 mm-wells precoated with fibronectin (SMC) or uncoated (PAEC). Cultures were treated with 10 μM of the following tyrphostin compounds: AG2033, AC2034, AG2043 and AG2044 (for SMC) or AG2033 (for PAEC) dissolved in 0.1% DMSO on days 1 and 3. On day 7, cultures were washed and the cells allowed to recover. Typically cells were counted on days 3 and 6 for inhibition, and on day 13 for recovery. The medium supplemented with serum (DMEM for SMC and Ham's F12 for PAEC) was changed every other day throughout the experiment.
Cells were grown in the presence of the specified tyrphostins and were counted on days 3, 6 and 13 in culture. On day 7 the cultures were washed and the cells allowed to recover. […] The inhibitory effect of all three compounds was reversible, and the cells resumed normal growth response as soon as the treatment with the tyrphostins was withdrawn.

[3] = biological target: epidermal growth factor receptor (Homo sapiens, UniProt P00533); details: cited from earlier work
Sequence of epidermal growth factor receptor (P00533 25-1210, species assumed): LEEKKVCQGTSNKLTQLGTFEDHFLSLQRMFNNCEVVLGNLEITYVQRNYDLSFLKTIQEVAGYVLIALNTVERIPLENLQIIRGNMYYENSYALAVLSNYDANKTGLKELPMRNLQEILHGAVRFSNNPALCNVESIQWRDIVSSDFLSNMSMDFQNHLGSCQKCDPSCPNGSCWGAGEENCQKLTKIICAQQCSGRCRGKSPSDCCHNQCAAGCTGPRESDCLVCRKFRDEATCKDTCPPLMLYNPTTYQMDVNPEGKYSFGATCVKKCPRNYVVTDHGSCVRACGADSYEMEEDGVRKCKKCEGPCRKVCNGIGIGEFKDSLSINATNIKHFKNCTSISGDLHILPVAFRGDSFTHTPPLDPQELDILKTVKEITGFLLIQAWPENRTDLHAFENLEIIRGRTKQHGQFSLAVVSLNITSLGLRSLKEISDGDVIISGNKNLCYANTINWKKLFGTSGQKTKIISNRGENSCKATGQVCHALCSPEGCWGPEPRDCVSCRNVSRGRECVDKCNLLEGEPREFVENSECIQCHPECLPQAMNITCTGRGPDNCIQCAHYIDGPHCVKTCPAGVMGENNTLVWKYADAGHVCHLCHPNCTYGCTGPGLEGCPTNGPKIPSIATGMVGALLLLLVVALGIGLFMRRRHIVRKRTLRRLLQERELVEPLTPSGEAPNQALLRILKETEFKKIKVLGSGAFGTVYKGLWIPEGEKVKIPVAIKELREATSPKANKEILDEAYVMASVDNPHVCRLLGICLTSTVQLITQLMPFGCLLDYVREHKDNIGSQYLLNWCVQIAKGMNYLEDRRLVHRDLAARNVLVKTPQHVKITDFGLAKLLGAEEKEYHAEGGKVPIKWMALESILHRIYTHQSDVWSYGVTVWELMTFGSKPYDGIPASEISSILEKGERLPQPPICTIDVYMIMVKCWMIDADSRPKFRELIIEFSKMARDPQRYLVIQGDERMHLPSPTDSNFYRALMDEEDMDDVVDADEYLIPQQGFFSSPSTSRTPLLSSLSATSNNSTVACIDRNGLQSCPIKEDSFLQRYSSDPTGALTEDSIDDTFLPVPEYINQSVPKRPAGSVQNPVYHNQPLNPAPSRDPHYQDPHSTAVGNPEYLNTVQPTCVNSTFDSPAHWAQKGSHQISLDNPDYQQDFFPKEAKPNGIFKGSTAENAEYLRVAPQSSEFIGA

[4] = system: DNA synthesis stimulated by insulin, by epidermal growth factor, or by a combination of both; details: cited from earlier work
[5] = system: fibroblast growth factor-dependent DNA synthesis; details: relative to PDGF-dependent DNA synthesis; cited from earlier work
[6] = biological target: human PDGF α-receptor (Homo sapiens, UniProt P16234); details: cited from earlier work
[7] = biological target: T1, PDGF β-receptor (Homo sapiens, UniProt P09619); details: cited from earlier work
T1 sequence (P09619 33-1106): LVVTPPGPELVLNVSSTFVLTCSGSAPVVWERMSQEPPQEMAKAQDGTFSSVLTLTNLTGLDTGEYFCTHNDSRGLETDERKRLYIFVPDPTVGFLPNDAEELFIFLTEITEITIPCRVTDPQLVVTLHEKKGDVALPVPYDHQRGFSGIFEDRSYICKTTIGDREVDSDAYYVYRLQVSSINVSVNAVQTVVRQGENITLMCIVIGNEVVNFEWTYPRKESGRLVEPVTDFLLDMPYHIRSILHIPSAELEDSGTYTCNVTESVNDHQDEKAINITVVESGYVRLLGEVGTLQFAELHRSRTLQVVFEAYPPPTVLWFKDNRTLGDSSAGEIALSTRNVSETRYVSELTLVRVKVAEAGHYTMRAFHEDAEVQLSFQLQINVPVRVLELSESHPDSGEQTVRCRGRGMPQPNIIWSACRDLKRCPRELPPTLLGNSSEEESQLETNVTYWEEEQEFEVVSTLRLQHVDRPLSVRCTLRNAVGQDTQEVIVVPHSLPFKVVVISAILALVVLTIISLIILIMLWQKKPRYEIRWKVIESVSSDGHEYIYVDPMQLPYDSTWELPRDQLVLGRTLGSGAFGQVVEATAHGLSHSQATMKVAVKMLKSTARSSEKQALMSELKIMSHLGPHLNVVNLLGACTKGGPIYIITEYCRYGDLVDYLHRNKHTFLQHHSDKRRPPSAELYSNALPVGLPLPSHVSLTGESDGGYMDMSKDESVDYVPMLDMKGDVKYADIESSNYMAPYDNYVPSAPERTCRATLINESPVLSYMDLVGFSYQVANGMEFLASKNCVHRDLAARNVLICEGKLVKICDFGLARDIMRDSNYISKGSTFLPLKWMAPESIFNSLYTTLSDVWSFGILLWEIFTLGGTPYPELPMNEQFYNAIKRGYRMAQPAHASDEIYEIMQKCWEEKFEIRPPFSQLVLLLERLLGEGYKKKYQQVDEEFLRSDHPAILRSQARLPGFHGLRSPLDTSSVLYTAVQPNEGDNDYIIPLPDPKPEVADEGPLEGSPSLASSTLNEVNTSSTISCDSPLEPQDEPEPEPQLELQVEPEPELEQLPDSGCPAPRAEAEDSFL

[8] = biological target: stem cell factor receptor (c-Kit) (Homo sapiens, UniProt P10721); details: cited from earlier work
Sequence of stem cell factor receptor (c-Kit) (P10721 26-976): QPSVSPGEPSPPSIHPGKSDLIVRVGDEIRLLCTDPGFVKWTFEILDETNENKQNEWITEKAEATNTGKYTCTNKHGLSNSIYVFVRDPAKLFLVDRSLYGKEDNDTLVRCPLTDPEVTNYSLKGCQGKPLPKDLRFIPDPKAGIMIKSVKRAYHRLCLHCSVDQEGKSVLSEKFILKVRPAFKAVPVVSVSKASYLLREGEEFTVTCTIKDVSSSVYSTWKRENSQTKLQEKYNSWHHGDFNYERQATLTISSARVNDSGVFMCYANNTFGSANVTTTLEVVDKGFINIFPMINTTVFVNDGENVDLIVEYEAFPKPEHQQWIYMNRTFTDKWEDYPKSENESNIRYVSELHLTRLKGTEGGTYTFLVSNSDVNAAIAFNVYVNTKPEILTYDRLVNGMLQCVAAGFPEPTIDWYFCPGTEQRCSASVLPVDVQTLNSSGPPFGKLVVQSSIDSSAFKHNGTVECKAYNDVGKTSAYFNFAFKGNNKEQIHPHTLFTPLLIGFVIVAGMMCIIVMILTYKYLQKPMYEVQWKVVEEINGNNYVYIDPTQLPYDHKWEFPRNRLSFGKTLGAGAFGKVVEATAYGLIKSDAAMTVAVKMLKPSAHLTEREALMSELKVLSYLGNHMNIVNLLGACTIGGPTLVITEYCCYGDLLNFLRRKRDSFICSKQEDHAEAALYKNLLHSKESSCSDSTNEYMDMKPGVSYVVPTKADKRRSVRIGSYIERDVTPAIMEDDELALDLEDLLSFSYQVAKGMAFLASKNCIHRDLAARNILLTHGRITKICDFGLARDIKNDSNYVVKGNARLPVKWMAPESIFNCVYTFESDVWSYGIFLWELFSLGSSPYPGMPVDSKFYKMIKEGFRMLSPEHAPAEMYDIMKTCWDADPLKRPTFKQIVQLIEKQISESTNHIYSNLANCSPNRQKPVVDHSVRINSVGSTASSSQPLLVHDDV

[9] = biological target: vascular endothelial growth factor receptor KDR (Homo sapiens, UniProt P35968); details: cited from earlier work
[10] = system: porcine aortic endothelial cells; details: cited from earlier work
[11] = system: sis-transfected NIH 3T3 cells; details: cited from earlier work
[12] = system: src-transformed NIH 3T3 cells; details: cited from earlier work
[13] = biological target: T2, p60c-src(F527) (Gallus gallus, UniProt P00523, Y527F); details: immunoprecipitated from src-transformed NIH 3T3 cells; cited from earlier work
T2 construct: host or cells: src-transformed NIH 3T3 cells (immunoprecipitate)

[14] = biological target: T3, PDGFβR (Mus musculus, UniProt P05622); test: PDGF-induced PDGFβR autophosphorylation in intact Swiss 3T3 cells (FIG. 8); assay type: cell-based; details: compared with AG2033 at 1 μM
T3 construct: A preparation of purified PDGFR from Swiss 3T3 cell membranes was used; endogenous in cells
T3 sequence (P05622 32-1098): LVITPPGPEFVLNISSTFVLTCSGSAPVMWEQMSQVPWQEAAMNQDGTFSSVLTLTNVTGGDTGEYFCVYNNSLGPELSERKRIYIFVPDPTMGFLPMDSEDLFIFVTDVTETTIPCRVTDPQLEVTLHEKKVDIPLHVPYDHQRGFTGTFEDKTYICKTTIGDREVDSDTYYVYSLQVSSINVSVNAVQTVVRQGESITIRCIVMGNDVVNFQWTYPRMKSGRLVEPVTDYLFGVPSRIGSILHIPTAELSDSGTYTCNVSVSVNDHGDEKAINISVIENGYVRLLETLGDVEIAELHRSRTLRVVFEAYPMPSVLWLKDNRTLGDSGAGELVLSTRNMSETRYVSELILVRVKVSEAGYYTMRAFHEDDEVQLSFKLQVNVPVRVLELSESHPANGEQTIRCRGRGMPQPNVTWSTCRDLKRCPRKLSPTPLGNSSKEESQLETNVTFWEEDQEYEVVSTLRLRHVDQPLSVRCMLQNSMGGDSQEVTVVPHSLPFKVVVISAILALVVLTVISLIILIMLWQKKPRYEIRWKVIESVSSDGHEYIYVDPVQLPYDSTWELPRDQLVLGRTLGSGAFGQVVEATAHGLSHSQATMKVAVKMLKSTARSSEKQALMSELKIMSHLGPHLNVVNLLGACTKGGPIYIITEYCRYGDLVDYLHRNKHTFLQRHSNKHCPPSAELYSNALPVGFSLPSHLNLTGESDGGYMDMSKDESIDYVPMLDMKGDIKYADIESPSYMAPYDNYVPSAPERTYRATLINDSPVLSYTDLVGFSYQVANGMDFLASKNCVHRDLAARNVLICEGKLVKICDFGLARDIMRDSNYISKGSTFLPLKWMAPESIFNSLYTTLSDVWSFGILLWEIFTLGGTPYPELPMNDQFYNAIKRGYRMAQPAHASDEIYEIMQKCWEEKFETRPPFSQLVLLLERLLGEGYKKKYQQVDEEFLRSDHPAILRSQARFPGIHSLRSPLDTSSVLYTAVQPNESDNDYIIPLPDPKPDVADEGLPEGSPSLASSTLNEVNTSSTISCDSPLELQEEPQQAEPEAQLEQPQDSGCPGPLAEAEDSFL
Method: Kinase reactions, using an isolated PDGFβR preparation, in the presence of 0.03-3 μM tyrphostin, were conducted, utilizing [γ-^32P]ATP as probe. Densitometric evaluation, relative to control lacking the tyrphostin inhibitor (100%), results in the percent autokinase activity, presented in Table 8 and in the dose-response curves for the purified transoid isomers AG2033 (FIG. 6) and AG2043 (FIG. 7). Further comparison between the resulting autoradiogrms for each pair of geometrical isomers AG2033 and AG2034 (upper panel); AG2043 and AG2044 (lower panel), for their inhibitory activity towards PDGF-induced PDGFβR autophosphorylation (concentration range: 0.1-10 μM) in intact cells is presented in FIG. 8. […] Similar potency relation exists between the AG2043 and AG2044 isomers.

[15] = biological target: T1, PDGF β-receptor; test: PDGF-induced PDGFR autophosphorylation in intact PAEC cells; assay type: cell-based; set-up: expressed in transfected cells; host or cells: porcine aortic endothelial cells (PAEC), stably transfected; details: intact PAEC cells expressing PDGFR, PDGF-BB stimulated; read-out: IC50 (50% inhibition of phosphorylation) PDGFR
Method: Effect of tyrphostins on PDGF-induced PDGFR autophosphorylation in intact PAEC cells: PAEC cells, transfected with either PDGFR or KDR, cultivated in Ham's F-12 medium supplemented with 10% fetal calf serum (FCS), were synchronized for 20 hours in a medium containing 0.01% BSA. […] After stimulation, the cells were solubilized in Nonidet P-40 (1%) containing lysis buffer.
The analysis of PDGF β-receptor phosphorylation was performed as follows. Cell lysates were subjected to immunoprecipitation using the PDGF β-receptor specific antiserum R3 [5]. The precipitates were subjected to polyacrylamide (7.5%) gel electrophoresis in presence of sodium dodecyl sulfate (SDS-PAGE) and were thereafter blotted onto a nitrocellulose membrane (Hybond C-EXTRA, Amersham). Phosphorylated proteins were detected by immunoblotting using the horseradish-peroxidase conjugated phosphotyrosine antibodies PY20 and 4G10 (Upstate Biotechnology), followed by application of secondary horseradish-peroxidase conjugated goat-anti-mouse antibody and chemoluminescence-based detection (ECL, Amersham) and autoradiography.
The data in Table 9 presents the differential potencies of the various compounds with respect to PDGFR and KDR, as was performed on intact PAEC cells expressing these receptors (see experimental methods section above).

SMILES | mean reduction in SMC count by day 3 [2] [%] | reversibility of the inhibitory effect on SMC proliferation [2] | effect on epidermal growth factor receptor autophosphorylation [3] | effect on DNA synthesis stimulated by insulin, EGF or a combination of both [4] | blocking effect on fibroblast growth factor-dependent DNA synthesis [5] | melting point [°C] | IC50 [15] [µM] | also measured
CC(C)(C)c1cc(C=C(C#N)C#N)cc(C(C)(C)C)c1O [AG17] |  |  |  |  |  |  |  | inhibition of neointimal formation [1]: effectively inhibits
Cc1cc2ncc(-c3ccccc3)nc2cc1C [AG1295] | 61 | completely reversible | no effect | weak effects | over an order of magnitude weaker blocking effect |  |  | 
COc1cc2ncc(-c3ccccc3)nc2cc1OC [AG1296] |  |  | no effect | weak effects | over an order of magnitude weaker blocking effect |  |  | inhibition of signalling of human PDGF α-receptor [6]: potently inhibits; inhibition of signalling of human PDGF β-receptor [7]: potently inhibits; inhibition of signalling of stem cell factor receptor (c-Kit) [8]: potently inhibits; effect on autophosphorylation of KDR [9]: no effect; effect on DNA synthesis induced by VEGF [10]: no effect; effect on transformed phenotype of sis-transfected NIH 3T3 cells [11]: reverses the transformed phenotype; effect on src-transformed NIH 3T3 cells [12]: no effect; effect on activity of kinase p60c-src(F527) [13]: no effect
Cc1nc2cc3ncc(-c4ccccc4)nc3cc2n1C [AG2034, 1,2-dimethyl-7-phenyl imidazolo[5,4-g]quinoxaline] |  |  |  |  |  | 218 | 10 | concentration giving similar (marked) inhibition of PDGFβR autophosphorylation in intact cells [14]: 10 to 30 µM
Cc1nc2cc3ncc(-c4cccs4)nc3cc2n1C [AG2044, 1,2-dimethyl-7-(2-thiophene) imidazolo[5,4-g]quinoxaline] | 84 | completely reversible |  |  |  | 218 | 5 | 

From patent US6673798B2, “PDGF receptor kinase inhibitory compounds, their preparation, purification and pharmaceutical compositions including same” (Yissum Research Development Company of the Hebrew …, priority 1999, dated 2004)
